Data taken from patent EP4174174A1, “TAILOR-MADE EXTREMOPHILIC FUNGAL LACCASES” (priority 2021, dated 2023).
Like-named read-outs stand apart in the source and are kept apart here.

Columns and labels:
Type in all cases: biochemical
[1] = test system: RY2 laccase variant L4 (+A458L; F392N, F396I, F460M, D263V, A458L); assay: Kinetic constants for the oxidation of ABTS and DMP by pure laccase
Method: (§1) Flask production and purification. The S. cerevisiae clones expressing selected laccase variants were grown in duplicate, in 100mL flasks with 30mL expression medium (containing […] and 3% ethanol) (Camarero et al. Applied and Environmental Microbiology 2012, 78,5). […] After 3 days of fermentation, cultures were treated as previously described (De Salas et al. Green Chemistry 2019 21, 5374-5385). Purification of the enzymes by High Pressure Liquid Chromatography (HPLC) was carried out in 3 chromatographic steps: two anion exchange steps using a HiPrep-QFF 16/10 column in a 100mL gradient of 0-40% elution buffer, and a MonoQ-HR 5/5 column in a 30mL gradient of 0-25% elution buffer, followed by size exclusion chromatography with a Superdex75. Fractions containing laccase activity (with 3mM ABTS in 50mM citrate-phosphate pH 3) were pooled, dialyzed in Tris-HCI pH 7 and concentrated after each chromatographic step. Enzyme purification was confirmed by the electrophoretic mobility in SDS-PAGE (12% acrylamide) stained with Coomassie brilliant blue.
(§2) To calculate Km and kcat values the average Vmax was represented versus substrate concentration and fitted to a single rectangular hyperbola function in SigmaPlot (version 14.0) software, where parameter "a" was equal to kcat and parameter "b" was equal to Km.

[2] = test system: RY2 laccase variant L3 (+D263V; F392N, F396I, F460M, D263V); assay: as above
Method: as §1, §2

[3] = target: RY2 laccase variant L2 (+F460M; F392N, F396I, F460M) (basidiomycete PM1, UniProt Q12571, F413N/F417I/F481M, form not given)
Method: as §1, §2

[4] = target: RY2 laccase (parental enzyme, SEQ ID NO: 1) (basidiomycete PM1, UniProt Q12571)
Method: as §1, §2

RY2 laccase variant L2 (+F460M; F392N, F396I, F460M), sequence (Q12571 entry or part of it F413N/F417I/F481M, form open): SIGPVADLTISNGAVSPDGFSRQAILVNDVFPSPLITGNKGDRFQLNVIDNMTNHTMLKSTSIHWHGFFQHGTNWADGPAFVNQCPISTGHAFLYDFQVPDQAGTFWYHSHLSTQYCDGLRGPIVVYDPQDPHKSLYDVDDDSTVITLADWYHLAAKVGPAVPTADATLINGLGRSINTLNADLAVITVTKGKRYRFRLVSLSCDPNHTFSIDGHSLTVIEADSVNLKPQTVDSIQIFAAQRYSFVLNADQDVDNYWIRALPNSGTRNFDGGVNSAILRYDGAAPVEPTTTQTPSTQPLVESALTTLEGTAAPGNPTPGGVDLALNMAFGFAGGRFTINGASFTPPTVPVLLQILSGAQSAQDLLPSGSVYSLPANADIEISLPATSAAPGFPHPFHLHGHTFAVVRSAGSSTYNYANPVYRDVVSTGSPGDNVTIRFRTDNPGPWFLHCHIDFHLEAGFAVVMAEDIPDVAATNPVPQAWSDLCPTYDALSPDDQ
RY2 laccase (parental enzyme, SEQ ID NO: 1), sequence (Q12571 entry or part of it): as the sequence (Q12571 entry or part of it F413N/F417I/F481M, form open) above

SMILES	Km ([1]; substrate ABTS, pH 3) [µM]	kcat ([1]; substrate ABTS, pH 3) [s⁻¹]	Km ([2]; substrate ABTS, pH 3) [µM]	kcat ([2]; substrate ABTS, pH 3) [s⁻¹]	kcat ([3]; substrate ABTS, pH 3) [s⁻¹]	kcat ([4]; substrate ABTS, pH 3) [s⁻¹]	Km ([1]; substrate DMP, pH 8) [µM]	Km ([1]; substrate DMP, pH 9) [µM]	kcat ([1]; substrate DMP, pH 9) [s⁻¹]	Km ([1]; substrate DMP, pH 10) [µM]	kcat ([1]; substrate DMP, pH 10) [s⁻¹]	Km ([2]; substrate DMP, pH 8) [µM]	kcat ([2]; substrate DMP, pH 8) [s⁻¹]	Km ([2]; substrate DMP, pH 9) [µM]	kcat ([2]; substrate DMP, pH 9) [s⁻¹]	Km ([2]; substrate DMP, pH 10) [µM]	kcat ([2]; substrate DMP, pH 10) [s⁻¹]	kcat ([3]; substrate DMP, pH 8) [s⁻¹]	kcat ([3]; substrate DMP, pH 9) [s⁻¹]	kcat ([4]; substrate DMP, pH 5) [s⁻¹]
CCn1c(=NN=c2sc3cc(S(=O)(=O)O)ccc3n2CC)sc2cc(S(=O)(=O)O)ccc21 [ABTS]	680 ± 40	136 ± 2.7	460 ± 40	123 ± 5.5	231 ± 5.6	543 ± 17														
COc1cccc(OC)c1O [DMP, 2,6-dimethoxyphenol]							1710 ± 100	430 ± 10	26 ± 0.28	22 ± 2	2 ± 0.05	1500 ± 120	82.3 ± 7.6	300 ± 30	21.7 ± 1.3	27 ± 1	0.79 ± 0.03	89 ± 6.2	9.5 ± 0.1	123 ± 6
